Assay results as given in patent publication US20160046592A1, “PHARMACEUTICAL COMPOSITION FOR THE TREATMENT OF DIABETES” (Ajinomoto Co., Inc., priority 2013, published 2016).
Where a name gives a salt, the structure may show the parent alone.

Assays:
[1] = tested on: Rat skeletal muscle-derived L6 myoblasts (differentiated into myotube cells); assay: Evaluation of glycogen accumulation in L6; type: cell-based; settings: [14C] glycogen from D-[U-C14] glucose, 3 hours incubation, 100% = compound of Example 1 of WO/2011/058154 at 30 μM
Description: The glycogen accumulation activity was evaluated in skeletal muscle cells according to the published article (ANALYTICAL BIOCHEMISTRY, Vol. 261: 159-163, 1998) by the following method. Rat skeletal muscle-derived L6 myoblasts (ATCC) were seeded in a 96-well collagen-coated plate (IWAKI, 4860-010) by using a growth medium (10% FBS-containing α-MEM medium (NACALAI TESQUE, INC., 21444-05)) under a condition of 4×10^4 cells/100 μL/well. After culturing under conditions of 37° C. and 5% CO2 overnight, the medium was replaced with a differentiation medium (2% FBS-containing α-MEM medium), followed by culturing for 3 days to differentiate the myoblasts into myotube cells. On the day of evaluation, the medium was replaced with a glucose-deprived medium (0.1% BSA-containing DMEM medium (Gibco, 11966)). After culturing for 4 hours, the medium was replaced with assay media (0.1% BSA-containing DMEM medium (NACALAI TESQUE, INC., 08456-65)) containing 0.6% DMSO and one of the test compounds at a concentration which was twice the final evaluation concentration at 15 μL/well. Further, an assay medium containing D-[U—C14] glucose (PerkinElmer Inc., NEC042V) at […] was added at 15 μL/well to adjust the final volume to 30 μL/well. Then, the cells were incubated under conditions of 37° C. and 5% CO2 for 3 hours. After the incubation, each medium was removed by suction with an aspirator, and the wells were rinsed with PBS at 200 μL/well twice. Then, 1 N NaOH was added at 50 μL/well, and the cells were lysed by incubation at 60° C. for 10 minutes. After the temperature of the lysed cells was returned to room temperature, each whole cell lysate and […] glycogen (Sigma-Aldrich, G8876) at 5 μL/well were added to a Multiscreen HTS (Millipore, MSFCN6B) to which 100% ethanol was added in advance at 100 μL/well, followed by incubation at 4° C. for 20 minutes. After the incubation, aspiration was conducted by using Multiscreen HTS Vacuum Manifold (Millipore), followed by rinse with 66% ethanol at 200 μL/well twice. After ethanol remaining on the filter was completely removed by drying, MicroScint40 (PerkinElmer Inc.) was added at 50 μL/well, the amount of [14C] glycogen was measured with TopCountNXT (PerkinElmer Inc.). The activity of each test compound was calculated by the following method. Specifically, the relative activity (%) was calculated as 100×(B−A)/(C−A), where A represents a value (cpm) measured for a well not containing the compound but containing only DMSO, B represents a value measured for a well containing the compound and DMSO, and C represents a value measured for a well containing the compound of Example 1 of WO/2011/058154 at a final concentration of 30 μM. EC50 representing the concentration of the compound at which an increase in activity by 50% was caused was calculated using XLfit (idbs).

[2] = target: T1, PPAR-α (Homo sapiens, UniProt Q07869); assay: Measurement of PPAR-α activity (GAL4 luciferase reporter assay in CV-1 cells); type: cell-based; settings: 100(A/B): A = maximum PPAR-α activity of test compound at 3, 10, 30 and 100 μM, B = activity of the compound of WO/2011/058154 at 100 μM, 18 to 20 hours, read-out: Relative fold induction (%) of PPAR α
T1 construct: expressed in transfected cells; host or cells: CV-1 (African green monkey kidney)
T1 sequence (Q07869 167-468): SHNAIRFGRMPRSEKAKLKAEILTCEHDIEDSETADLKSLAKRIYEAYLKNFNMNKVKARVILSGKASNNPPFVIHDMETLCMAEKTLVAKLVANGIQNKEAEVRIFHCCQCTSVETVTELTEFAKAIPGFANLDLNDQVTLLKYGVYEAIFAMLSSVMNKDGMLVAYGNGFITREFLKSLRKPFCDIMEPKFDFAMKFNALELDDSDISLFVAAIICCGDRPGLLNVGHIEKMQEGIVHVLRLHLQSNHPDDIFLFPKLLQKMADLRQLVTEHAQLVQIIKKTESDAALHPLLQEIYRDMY
In short: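 CV-1 cells were co-transfected with a UAS×5-TK-Luc reporter and a hGR-GAL4-hPPARα (LBD 167-468aa) expression plasmid, then dosed with compound for 18 to 20 h at 37 °C, with Bright-Glo luciferase read-out. Relative fold induction (%) is the maximum activity at 3, 10, 30 or 100 μM divided by the activity of a WO/2011/058154 reference compound at 100 μM.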

Emax [2]	Structure (SMILES)	EC50 [1]
14%	COC[C@@H]1CC[C@@H](C(=O)O)N1C(=O)c1cccc(COc2ccc(-c3cc(F)c(F)cc3SC)cc2)c1 [Example 62, (2S,5S)-1-[3-[[4-(4,5-Difluoro-2-methylsulfanyl-phenyl)phenoxy]methyl]benzoyl]-5-(methoxymethyl)pyrrolidine-2-carboxylic Acid]	< 300 nM
13%	CSc1cc(F)c(F)cc1-c1ccc(OCc2cccc(C(=O)N3C[C@H](N(C)C)C[C@H]3C(=O)O)c2)cc1 [Example 63, (2S,4R)-1-[3-[[4-(4,5-Difluoro-2-methylsulfanyl-phenyl)phenoxy]methyl]benzoyl]-4-(dimethylamino)pyrrolidine-2-carboxylic Acid Trifluoroacetate]	–
